{"source": "patent US20230040770A1", "about": "“HETEROCYCLIC COMPOUND AND USE THEREOF” (TAKEDA PHARMACEUTICAL COMPANY LIMITED, priority 2019, published 2023)", "target": "T1, human orexin type 2 receptor (Homo sapiens, UniProt O43614)", "T1 construct": "expressed in transfected cells", "T1 sequence (O43614 1-444)": "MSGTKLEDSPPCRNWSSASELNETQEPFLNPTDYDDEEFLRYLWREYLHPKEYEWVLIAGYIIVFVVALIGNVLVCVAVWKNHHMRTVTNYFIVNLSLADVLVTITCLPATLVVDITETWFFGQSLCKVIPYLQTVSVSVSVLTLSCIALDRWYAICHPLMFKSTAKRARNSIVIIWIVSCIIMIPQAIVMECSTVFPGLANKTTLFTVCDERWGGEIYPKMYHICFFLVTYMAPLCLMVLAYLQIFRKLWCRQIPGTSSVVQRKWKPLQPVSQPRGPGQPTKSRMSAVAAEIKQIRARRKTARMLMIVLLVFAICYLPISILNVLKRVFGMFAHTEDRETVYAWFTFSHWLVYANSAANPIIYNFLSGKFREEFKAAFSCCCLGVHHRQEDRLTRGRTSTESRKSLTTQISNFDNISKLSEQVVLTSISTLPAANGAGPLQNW", "assay": "Measurement of orexin type 2 receptor agonist activity (calcium indicator fluorescence, CHO cells forcibly expressing human OX2 receptor)", "assay_type": "cell-based", "conditions": "compound at 3 μM; 0% = DMSO, 100% = orexin A (human) 10 nM", "text": "To obtain a cell clone stably expressing human orexin type 2 receptor, human orexin type 2 receptor cDNA was inserted into pcDNA3.1(+) plasmid vector (Invitrogen), and a plasmid DNA for expression of human orexin type 2 receptor (pcDNA3.1(+)/hOX2R) was cloned. The plasmid DNA was introduced into CHO-dhfr cell by an electroporation method, and human orexin type 2 receptor expressing clone cells were obtained by limiting dilution method by using G418 drug resistance as a selection marker.\nCHO cells forcibly expressing human OX2 receptor were seeded in each well of 384 well black transparent bottom plate (BD Falcon) at 7,500 cells/well, and cultured for one day in a 5% CO2 incubator at 37° C. After removal of the medium in the cell plate, assay buffer A containing a calcium indicator (HBSS (Thermo Fisher Scientific), 20 mM HEPES (Thermo Fisher Scientific), 0.1% BSA (Sigma-Aldrich), 2.5 μg/mL Fluo-4 AM (DOJINDO Chemical), 0.08% Pluronic F127 (DOJINDO Chemical), 1.25 mM probenecid (DOJINDO Chemical)) was added at 30 μL/well. The plate was stood for 30 min in a 5% CO2 incubator at 37° C., and further stood at room temperature for 30 min. A test compound prepared by diluting with assay buffer B (HBSS, 20 mM HEPES, 0.1% BSA) was added at 10 μL/well, and the fluorescence value was measured by FDSSμCELL (Hamamatsu Photonics K.K.) every one sec for 1 min, and thereafter every two sec for […]. The activity (%) of the test compound was calculated assuming that variation in the fluorescence value when DMSO was added instead of the test compound was 0%, and variation in the fluorescence value when orexin A (human) (PEPTIDE INSTITUTE, INC.) was added at the final concentration of 10 nM was 100%."}
{"compound": "CCS(=O)(=O)N[C@@H]1[C@H](Cc2cccc(-c3cc(F)cc(F)c3)c2F)N(C(=O)C2(O)CCC2)CC1(F)F", "note": "[Example 272, N-{(2S,3R)-4,4-difluoro-1-(1-hydroxycyclobutane-1-carbonyl)-2-[(2,3′,5′-trifluoro[1,1′-biphenyl]-3-yl)methyl]pyrrolidin-3-yl}ethanesulfonamide]", "values": [{"measurement": "OX2R agonist activity (3 μM, %)", "value": 88, "unit": "%"}]}
{"compound": "CCS(=O)(=O)N[C@@H]1[C@H](Cc2cccc(-c3ccccc3)c2F)N(C(=O)C(C)C)CC1(F)F", "note": "[Example 106, N-[(2S,3R)-4,4-difluoro-2-[(2-fluoro[1,1′-biphenyl]-3-yl)methyl]-1-(2-methylpropanoyl)pyrrolidin-3-yl]ethanesulfonamide]", "values": [{"measurement": "OX2R agonist activity (3 μM, %)", "value": 97, "unit": "%"}]}
{"compound": "Cc1cccc(-c2cccc(C[C@H]3[C@@H](NS(=O)(=O)C4CC4)C(F)(F)CN3C(=O)C3(O)CCC3)c2F)c1", "note": "[Example 430, N-[(2S,3R)-4,4-difluoro-2-[(2-fluoro-3′-methyl[1,1′-biphenyl]-3-yl)methyl]-1-(1-hydroxycyclobutane-1-carbonyl)pyrrolidin-3-yl]cyclopropanesulfonamide]", "values": [{"measurement": "OX2R agonist activity (3 μM, %)", "value": 96, "unit": "%"}]}
{"compound": "CCS(=O)(=O)N[C@H]1[C@@H](F)CN(C(=O)C2CC2)[C@H]1Cc1cccc(-c2cccc(C)c2F)c1F", "note": "[Example 519, N-{(2S,3R,4S)-1-(cyclopropanecarbonyl)-2-[(2,2′-difluoro-3′-methyl[1,1′-biphenyl]-3-yl)methyl]-4-fluoropyrrolidin-3-yl}ethanesulfonamide]", "values": [{"measurement": "OX2R agonist activity (3 μM, %)", "value": 98, "unit": "%"}]}
{"compound": "CS(=O)(=O)N[C@@H]1[C@H](Cc2cccc(-c3cccc(Cl)c3)c2F)N(C(=O)C2CC2)CC1(F)F", "note": "[Example 250, N-[(2S,3R)-2-[(3′-chloro-2-fluoro[1,1′-biphenyl]-3-yl)methyl]-1-(cyclopropanecarbonyl)-4,4-difluoropyrrolidin-3-yl]methanesulfonamide]", "values": [{"measurement": "OX2R agonist activity (3 μM, %)", "value": 96, "unit": "%"}]}
{"compound": "CCS(=O)(=O)N[C@H]1[C@@H](F)CN(C(=O)C(C)(C)O)[C@H]1Cc1cccc(-c2cccc(Cl)c2)c1F", "note": "[Example 346, N-[(2S,3R,4S)-2-[(3′-chloro-2-fluoro[1,1′-biphenyl]-3-yl)methyl]-4-fluoro-1-(2-hydroxy-2-methylpropanoyl)pyrrolidin-3-yl]ethanesulfonamide]", "values": [{"measurement": "OX2R agonist activity (3 μM, %)", "value": 93, "unit": "%"}]}
{"compound": "CCS(=O)(=O)N[C@@H]1[C@H](Cc2cccc(-c3cc(Cl)ccc3F)c2F)N(C(=O)C2CC2)CC1(F)F", "note": "[Example 251, N-[(2S,3R)-2-[(5′-chloro-2,2′-difluoro[1,1′-biphenyl]-3-yl)methyl]-1-(cyclopropanecarbonyl)-4,4-difluoropyrrolidin-3-yl]ethanesulfonamide]", "values": [{"measurement": "OX2R agonist activity (3 μM, %)", "value": 91, "unit": "%"}]}
{"compound": "CCS(=O)(=O)N[C@@H]1[C@H](Cc2cccc(-c3cc(F)c(F)cc3F)c2F)N(C(=O)C2CCO2)CC1(F)F", "note": "(stereo partly drawn) [Example 477, N-{(2S,3R)-4,4-difluoro-1-(oxetane-2-carbonyl)-2-[(2,2′,4′,5′-tetrafluoro[1,1′-biphenyl]-3-yl)methyl]pyrrolidin-3-yl}ethanesulfonamide]", "values": [{"measurement": "OX2R agonist activity (3 μM, %)", "value": 96, "unit": "%"}]}
{"compound": "CCS(=O)(=O)N[C@@H]1[C@H](Cc2cccc(-c3cccc(OC(F)F)c3)c2F)N(C(=O)C2CC2)CC1(F)F", "note": "[Example 550, N-[(2S,3R)-1-(cyclopropanecarbonyl)-2-{[3′-(difluoromethoxy)-2-fluoro[1,1′-biphenyl]-3-yl]methyl}-4,4-difluoropyrrolidin-3-yl]ethanesulfonamide]", "values": [{"measurement": "OX2R agonist activity (3 μM, %)", "value": 93, "unit": "%"}]}
{"compound": "CCS(=O)(=O)N[C@@H]1[C@H](Cc2cccc(-c3ccccc3)c2F)N(C(=O)[C@H]2C[C@@H](F)C2)CC1(F)F", "note": "[Example 383, N-[(2S,3R)-4,4-difluoro-2-[(2-fluoro[1,1′-biphenyl]-3-yl)methyl]-1-((1s,3R)-3-fluorocyclobutane-1-carbonyl)pyrrolidin-3-yl]ethanesulfonamide]", "values": [{"measurement": "OX2R agonist activity (3 μM, %)", "value": 94, "unit": "%"}]}
{"compound": "CCS(=O)(=O)N[C@H]1[C@@H](F)CN(C(=O)C2CC2)[C@H]1Cc1cccc(-c2cc(F)ccc2F)c1F", "note": "[Example 238, N-{(2S,3R,4S)-1-(cyclopropanecarbonyl)-4-fluoro-2-[(2,2′,5′-trifluoro[1,1′-biphenyl]-3-yl)methyl]pyrrolidin-3-yl}ethanesulfonamide]", "values": [{"measurement": "OX2R agonist activity (3 μM, %)", "value": 98, "unit": "%"}]}
{"compound": "CS(=O)(=O)N[C@@H]1[C@H](Cc2cccc(-c3cccc(Cl)c3)c2F)N(C(=O)C2CCO2)CC1(F)F", "note": "(stereo partly drawn) [Example 259, N-[(2S,3R)-2-[(3′-chloro-2-fluoro[1,1′-biphenyl]-3-yl)methyl]-4,4-difluoro-1-(oxetane-2-carbonyl)pyrrolidin-3-yl]methanesulfonamide]", "values": [{"measurement": "OX2R agonist activity (3 μM, %)", "value": 96, "unit": "%"}]}
{"compound": "CCS(=O)(=O)N[C@@H]1[C@H](Cc2cccc(-c3cccc(F)c3F)c2)N(C(=O)C2CCO2)CC1(F)F", "note": "(stereo partly drawn) [Example 174, N -[(2S,3R)-2-[(2′,3′-difluoro[1,1′-biphenyl]-3-yl)methyl]-4,4-difluoro-1-(oxetane-2-carbonyl)pyrrolidin-3-yl]ethanesulfonamide]", "values": [{"measurement": "OX2R agonist activity (3 μM, %)", "value": 90, "unit": "%"}]}
{"compound": "CCS(=O)(=O)N[C@H]1[C@@H](F)CN(C(=O)C2CC2)[C@H]1Cc1cccc(-c2ccccc2)c1F", "note": "[Example 239, N-{(2S,3R,4S)-1-(cyclopropanecarbonyl)-4-fluoro-2-[(2-fluoro[1,1′-biphenyl]-3-yl)methyl]pyrrolidin-3-yl}ethanesulfonamide]", "values": [{"measurement": "OX2R agonist activity (3 μM, %)", "value": 102, "unit": "%"}]}
{"compound": "CS(=O)(=O)N[C@@H]1[C@H](Cc2cccc(-c3ccccc3)c2F)N(C(=O)C2CCO2)CC1(F)F", "note": "(stereo partly drawn) [Example 79, N-[(2S,3R)-4,4-difluoro-2-[(2-fluoro[1,1′-biphenyl]-3-yl)methyl]-1-(oxetane-2-carbonyl)pyrrolidin-3-yl]methanesulfonamide]", "values": [{"measurement": "OX2R agonist activity (3 μM, %)", "value": 102, "unit": "%"}]}
{"compound": "CCS(=O)(=O)N[C@H]1[C@@H](F)CN(C(=O)[C@H]2CCCO2)[C@H]1Cc1cccc(-c2cccc(F)c2F)c1F", "note": "[Example 415, N-{(2S,3R,4S)-4-fluoro-1-[(2R)-oxolane-2-carbonyl]-2-[(2,2′,3′-trifluoro[1,1′-biphenyl]-3-yl)methyl]pyrrolidin-3-yl}ethanesulfonamide]", "values": [{"measurement": "OX2R agonist activity (3 μM, %)", "value": 107, "unit": "%"}]}
{"compound": "CCS(=O)(=O)N[C@@H]1[C@H](Cc2cccc(-c3ccc(F)c(C)c3)c2F)N(C(=O)C2CCO2)CC1(F)F", "note": "(stereo partly drawn) [Example 472, N-[(2S,3R)-2-[(2,4′-difluoro-3′-methyl[1,1′-biphenyl]-3-yl)methyl]-4,4-difluoro-1-(oxetane-2-carbonyl)pyrrolidin-3-yl]ethanesulfonamide]", "values": [{"measurement": "OX2R agonist activity (3 μM, %)", "value": 95, "unit": "%"}]}
{"compound": "O=C(N1CCC1)N1CC(F)(F)[C@H](NS(=O)(=O)C2CC2)[C@@H]1Cc1cccc(-c2cccc(F)c2)c1F", "note": "[Example 534, N-{(2S,3R)-1-(azetidine-1-carbonyl)-2-[(2,3′-difluoro[1,1′-biphenyl]-3-yl)methyl]-4,4-difluoropyrrolidin-3-yl}cyclopropanesulfonamide]", "values": [{"measurement": "OX2R agonist activity (3 μM, %)", "value": 98, "unit": "%"}]}
{"compound": "CCS(=O)(=O)N[C@@H]1[C@H](Cc2cccc(-c3cc(F)cc(F)c3)c2F)N(C(=O)N(C)C)CC1(F)F", "note": "[Example 282, (2S,3R)-3-[(ethanesulfonyl)amino]-4,4-difluoro-N,N-dimethyl-2-[(2,3′,5′-trifluoro[1,1′-biphenyl]-3-yl)methyl]pyrrolidine-1-carboxamide]", "values": [{"measurement": "OX2R agonist activity (3 μM, %)", "value": 96, "unit": "%"}]}
